# Experimental data published in patent US20250145665A1, “MACROCYCLIC PEPTIDES USEFUL AS MODULATORS OF TNF ALPHA” (Bristol-Myers Squibb Company, priority 2023, published 2025).
# Starred links: 1 amine or outer side, 2 acyl side, 3 side chain; linkers in the order of their positions; H or OH if unused. Positions of bridges follow the written chain, without caps; N, C: chain ends. Non-standard residues stand in square brackets, D forms with d. Residues, ends and D or L forms follow the SMILES beside them. *: point of attachment. Bip(4'-NHCO-C6H4-4-CH2COOH) = N[C@@H](Cc1ccc(-c2ccc(NC(=O)c3ccc(CC(=O)O)cc3)cc2)cc1)C(=O)O; Bip(4'-(3-HOOC-benzamido)) = N[C@@H](Cc1ccc(-c2ccc(NC(=O)c3cccc(C(=O)O)c3)cc2)cc1)C(=O)O; dArg(Nω-CH2C6H4-3-CH2Gua) = N=C(N)NCc1cccc(CNC(=N)NCCC[C@@H](N)C(=O)O)c1; Bip(4'-NHBz) = N[C@@H](Cc1ccc(-c2ccc(NC(=O)c3ccccc3)cc2)cc1)C(=O)O; Bip(4'-NH) = O=C([C@H](Cc1ccc(-c2ccc(N[*:3])cc2)cc1)N[*:1])[*:2]; Indazole3carbonyl(1-CH2COOH) = O=C(O)Cn1nc(C(=O)*)c2ccccc21; Bip(4'-COOH) = N[C@@H](Cc1ccc(-c2ccc(C(=O)O)cc2)cc1)C(=O)O; Bip(4'-NHAc) = CC(=O)Nc1ccc(-c2ccc(C[C@H](N)C(=O)O)cc2)cc1; X33 = N=C(NCCC[C@@H](N[*:1])C(=O)[*:2])NCc1cccc(CC(=O)O)c1; X53 = CC(C)(C)n1nnc(CNC(=N)NCCC[C@@H](N[*:1])C(=O)[*:2])n1; X80 = N=C(NCCC[C@@H](N[*:1])C(=O)[*:2])NCc1ccc2c(c1)OCO2; X26 = N=C(NCCC[C@@H](N[*:1])C(=O)[*:2])NCc1ccc(O)cc1; Ala(morpholin-4-yl) = N[C@@H](CN1CCOCC1)C(=O)O; Benzoyl(3-OCH2COOH) = O=C(O)COc1cccc(C(=O)*)c1; Bip = N[C@@H](Cc1ccc(-c2ccccc2)cc1)C(=O)O; Ala(2-furyl) = N[C@@H](Cc1ccco1)C(=O)O; Tiq1c(1S) = O=C(O)[C@H]1NCCc2ccccc21; Val(3-OH) = CC(C)(O)[C@H](N)C(=O)O; 2Pal = N[C@@H](Cc1ccccn1)C(=O)O; Tic = O=C(O)[C@@H]1Cc2ccccc2CN1; Cha = N[C@@H](CC1CCCCC1)C(=O)O; Chg = N[C@H](C(=O)O)C1CCCCC1; Sar = CNCC(=O)O
# Target: TNFα (Homo sapiens, UniProt P01375)
# Assay: TNF-Induced HEK-Blue Assay
# Format: cell-based
# Details: not given
# Chain of TNFα (P01375 77-233 limits assumed): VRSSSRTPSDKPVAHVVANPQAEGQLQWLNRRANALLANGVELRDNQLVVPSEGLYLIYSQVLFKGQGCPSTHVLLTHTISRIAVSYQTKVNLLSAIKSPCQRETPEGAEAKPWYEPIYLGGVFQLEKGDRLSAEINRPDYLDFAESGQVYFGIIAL
row,SMILES,IC50 [nM]
1,CC(C)C[C@@H]1NC(=O)[C@H](CCCNC(=N)N)NC(=O)[C@H](C(C)C)NC(=O)[C@@H]2CCCN2C(=O)[C@H](C(C)C)NC(=O)[C@@H](CCCNC(=N)NCc2ccc(O)cc2)NC(=O)[C@H](CC(=O)O)NC(=O)[C@@H]2CCCN2C(=O)CN(C)C(=O)[C@H](Cc2ccc(-c3ccc(NC(=O)c4nn(CC(=O)O)c5ccccc45)cc3)cc2)NC(=O)[C@H](Cc2ccc(-c3ccccc3)cc2)NC(=O)[C@H](CN2CCOCC2)NC(=O)CSC[C@@H](C(=O)NCC(N)=O)NC1=O [Example 508] ({CH2CO}-[Ala(morpholin-4-yl)][Bip][Bip(4'-NH)](Indazole3carbonyl(1-CH2COOH))[Sar]PD[X26]VPVRLCG-NH2; thioether N-13),< 50
2,CC(C)C[C@@H]1NC(=O)[C@H](CCCNC(=N)N)NC(=O)[C@H](C(C)C)NC(=O)[C@@H]2CCCN2C(=O)[C@H](C(C)C)NC(=O)[C@@H](CCCNC(=N)NCc2ccc3c(c2)OCO3)NC(=O)[C@H](CC(=O)O)NC(=O)[C@@H]2CCCN2C(=O)CN(C)C(=O)[C@H](Cc2ccc(-c3ccc(NC(=O)c4nn(CC(=O)O)c5ccccc45)cc3)cc2)NC(=O)[C@H](Cc2ccc(-c3ccccc3)cc2)NC(=O)[C@H](CN2CCOCC2)NC(=O)CSC[C@@H](C(=O)NCC(N)=O)NC1=O [Example 509] ({CH2CO}-[Ala(morpholin-4-yl)][Bip][Bip(4'-NH)](Indazole3carbonyl(1-CH2COOH))[Sar]PD[X80]VPVRLCG-NH2; thioether N-13),< 50
3,CC(C)C[C@@H]1NC(=O)[C@H](CCCNC(=N)N)NC(=O)[C@H](C(C)C)NC(=O)[C@@H]2CCCN2C(=O)[C@H](C(C)C)NC(=O)[C@@H](CCCNC(=N)NCc2nnn(C(C)(C)C)n2)NC(=O)[C@H](CC(=O)O)NC(=O)[C@@H]2CCCN2C(=O)CN(C)C(=O)[C@H](Cc2ccc(-c3ccc(NC(=O)c4nn(CC(=O)O)c5ccccc45)cc3)cc2)NC(=O)[C@H](Cc2ccc(-c3ccccc3)cc2)NC(=O)[C@H](CN2CCOCC2)NC(=O)CSC[C@@H](C(=O)NCC(N)=O)NC1=O [Example 510] ({CH2CO}-[Ala(morpholin-4-yl)][Bip][Bip(4'-NH)](Indazole3carbonyl(1-CH2COOH))[Sar]PD[X53]VPVRLCG-NH2; thioether N-13),< 50
4,CC(C)C[C@@H]1NC(=O)[C@H](CCCNC(=N)N)NC(=O)[C@H](C(C)C)NC(=O)[C@@H]2CCCN2C(=O)[C@H](C(C)C)NC(=O)[C@@H](CCCNC(=N)NCc2cccc(CC(=O)O)c2)NC(=O)[C@H](CC(=O)O)NC(=O)[C@@H]2CCCN2C(=O)CN(C)C(=O)[C@H](Cc2ccc(-c3ccc(NC(=O)c4nn(CC(=O)O)c5ccccc45)cc3)cc2)NC(=O)[C@H](Cc2ccc(-c3ccccc3)cc2)NC(=O)[C@H](CN2CCOCC2)NC(=O)CSC[C@@H](C(=O)NCC(N)=O)NC1=O [Example 511] ({CH2CO}-[Ala(morpholin-4-yl)][Bip][Bip(4'-NH)](Indazole3carbonyl(1-CH2COOH))[Sar]PD[X33]VPVRLCG-NH2; thioether N-13),50 to 200
5,CC(C)C[C@@H]1NC(=O)[C@H](CCCNC(=N)N)NC(=O)[C@H](C(C)C)NC(=O)[C@@H]2CCCN2C(=O)[C@H](C(C)C)NC(=O)[C@@H](CCCNC(=N)NCc2cccc(CNC(=N)N)c2)NC(=O)[C@H](CC(=O)O)NC(=O)[C@@H]2CCCN2C(=O)CN(C)C(=O)[C@H](Cc2ccc(-c3ccc(NC(=O)c4nn(CC(=O)O)c5ccccc45)cc3)cc2)NC(=O)[C@H](Cc2ccc(-c3ccccc3)cc2)NC(=O)[C@H](CN2CCOCC2)NC(=O)CSC[C@@H](C(=O)NCC(N)=O)NC1=O [Example 512] ({CH2CO}-[Ala(morpholin-4-yl)][Bip][Bip(4'-NH)](Indazole3carbonyl(1-CH2COOH))[Sar]PD[dArg(Nω-CH2C6H4-3-CH2Gua)]VPVRLCG-NH2; thioether N-13),< 50
6,CC(C)C[C@@H]1NC(=O)[C@H](Cc2c[nH]cn2)NC(=O)[C@H](C2CCCCC2)NC(=O)[C@@H]2CCCN2C(=O)[C@H](C(C)C)NC(=O)[C@@H](CCCNC(=N)N)NC(=O)[C@H](CC(=O)O)NC(=O)[C@H](Cc2cnc[nH]2)NC(=O)CN(C)C(=O)[C@H](Cc2ccc(-c3ccc(NC(=O)c4ccccc4)cc3)cc2)NC(=O)[C@H](Cc2ccc(-c3ccccc3)cc2)NC(=O)[C@H](CC2CCCCC2)NC(=O)CSC[C@@H](C(=O)NCC(N)=O)NC1=O [Example 513] ({CH2CO}-[Cha][Bip][Bip(4'-NHBz)][Sar]HD[dR]VP[Chg]HLCG-NH2; thioether N-13),< 50

# Same assay, conditions: HEK-Blue-CD40L cells, NF-kB-driven secreted alkaline phosphatase reporter; TNFα 0.5 ng/ml; 18 h; read-out: TNF induced HEK-Blue assay IC50 value
row,SMILES,IC50 [nM]
1,CC(C)C[C@@H]1NC(=O)[C@H](Cc2c[nH]cn2)NC(=O)[C@H](C2CCCCC2)NC(=O)[C@@H]2CCCN2C(=O)[C@H](C(C)C)NC(=O)[C@@H](CCCNC(=N)N)NC(=O)[C@H](CC(=O)O)NC(=O)[C@H](Cc2cnc[nH]2)NC(=O)CN(C)C(=O)[C@H](Cc2ccc(-c3ccc(NC(=O)c4cccc(C(=O)O)c4)cc3)cc2)NC(=O)[C@H](Cc2ccc(-c3ccccc3)cc2)NC(=O)[C@H](CC2CCCCC2)NC(=O)CSC[C@@H](C(=O)NCC(N)=O)NC1=O [Example 514] ({CH2CO}-[Cha][Bip][Bip(4'-(3-HOOC-benzamido))][Sar]HD[dR]VP[Chg]HLCG-NH2; thioether N-13),< 50
2,CC[C@H](C)[C@@H]1NC(=O)[C@@H](CCCNC(=N)N)NC(=O)[C@H](CC(=O)O)NC(=O)[C@H](Cc2cnc[nH]2)NC(=O)CN(C)C(=O)[C@H](Cc2ccc(-c3ccc(NC(=O)c4cccc(OCC(=O)O)c4)cc3)cc2)NC(=O)[C@H](Cc2ccc(-c3ccccc3)cc2)NC(=O)[C@H](CC2CCCCC2)NC(=O)CSC[C@@H](C(=O)NCC(N)=O)NC(=O)[C@H](CC(C)C)NC(=O)[C@H](Cc2c[nH]cn2)NC(=O)[C@H](C(C)C)NC(=O)[C@@H]2Cc3ccccc3CN2C1=O [Example 515] ({CH2CO}-[Cha][Bip][Bip(4'-NH)](Benzoyl(3-OCH2COOH))[Sar]HD[dR]I[Tic]VHLCG-NH2; thioether N-13),< 50
3,CC[C@H](C)[C@@H]1NC(=O)[C@@H](CCCNC(=N)N)NC(=O)[C@H](CC(=O)O)NC(=O)[C@H](Cc2cnc[nH]2)NC(=O)CN(C)C(=O)[C@H](Cc2ccc(-c3ccc(NC(=O)c4cccc(OCC(=O)O)c4)cc3)cc2)NC(=O)[C@H](Cc2ccc(-c3ccccc3)cc2)NC(=O)[C@H](CC2CCCCC2)NC(=O)CSC[C@@H](C(=O)NCC(N)=O)NC(=O)[C@H](CC(C)C)NC(=O)[C@H](Cc2c[nH]cn2)NC(=O)[C@H](C(C)C)NC(=O)[C@@H]2c3ccccc3CCN2C1=O [Example 516] ({CH2CO}-[Cha][Bip][Bip(4'-NH)](Benzoyl(3-OCH2COOH))[Sar]HD[dR]I[Tiq1c(1S)]VHLCG-NH2; thioether N-13),< 50
4,CC(=O)Nc1ccc(-c2ccc(C[C@@H]3NC(=O)[C@H](Cc4ccc(-c5ccccc5)cc4)NC(=O)[C@H](C(C)(C)O)NC(=O)CSC[C@@H](C(=O)NCC(N)=O)NC(=O)[C@H](CC(C)C)NC(=O)[C@H](Cc4cnc[nH]4)NC(=O)[C@H](C(C)C)NC(=O)[C@@H]4CCCN4C(=O)[C@H](C(C)C)NC(=O)[C@@H](CCCNC(=N)N)NC(=O)[C@H](CC(=O)O)NC(=O)[C@H](Cc4ccccn4)NC(=O)CN(C)C3=O)cc2)cc1 [Example 518] ({CH2CO}-[Val(3-OH)][Bip][Bip(4'-NHAc)][Sar][2Pal]D[dR]VPVHLCG-NH2; thioether N-13),50 to 200
5,CC(=O)Nc1ccc(-c2ccc(C[C@@H]3NC(=O)[C@H](Cc4ccc(-c5ccccc5)cc4)NC(=O)[C@H](CN4CCOCC4)NC(=O)CSC[C@@H](C(=O)NCC(N)=O)NC(=O)[C@H](CC(C)C)NC(=O)[C@H](Cc4cnc[nH]4)NC(=O)[C@H](C(C)C)NC(=O)[C@@H]4CCCN4C(=O)[C@H](C(C)C)NC(=O)[C@@H](CCCNC(=N)N)NC(=O)[C@H](CC(=O)O)NC(=O)[C@H](Cc4ccco4)NC(=O)CN(C)C3=O)cc2)cc1 [Example 519] ({CH2CO}-[Ala(morpholin-4-yl)][Bip][Bip(4'-NHAc)][Sar][Ala(2-furyl)]D[dR]VPVHLCG-NH2; thioether N-13),50 to 200
6,CC(=O)Nc1ccc(-c2ccc(C[C@@H]3NC(=O)[C@H](Cc4ccc(-c5ccc(C(=O)O)cc5)cc4)NC(=O)[C@H](CN4CCOCC4)NC(=O)CSC[C@@H](C(=O)NCC(N)=O)NC(=O)[C@H](CC(C)C)NC(=O)[C@H](Cc4cnc[nH]4)NC(=O)[C@H](C(C)C)NC(=O)[C@@H]4CCCN4C(=O)[C@H](C(C)C)NC(=O)[C@@H](CCCNC(=N)N)NC(=O)[C@H](CC(=O)O)NC(=O)[C@H](Cc4ccco4)NC(=O)CN(C)C3=O)cc2)cc1 [Example 520] ({CH2CO}-[Ala(morpholin-4-yl)][Bip(4'-COOH)][Bip(4'-NHAc)][Sar][Ala(2-furyl)]D[dR]VPVHLCG-NH2; thioether N-13),< 50
7,CC[C@H](C)[C@@H]1NC(=O)[C@@H](CCCNC(=N)N)NC(=O)[C@H](CC(=O)O)NC(=O)[C@H](Cc2ccccn2)NC(=O)CN(C)C(=O)[C@H](Cc2ccc(-c3ccc(NC(C)=O)cc3)cc2)NC(=O)[C@H](Cc2ccc(-c3ccccc3)cc2)NC(=O)[C@H](CN2CCOCC2)NC(=O)CSC[C@@H](C(=O)NCC(N)=O)NC(=O)[C@H](CC(C)C)NC(=O)[C@H](Cc2cnc[nH]2)NC(=O)[C@H](C(C)C)NC(=O)[C@@H]2CCCN2C1=O [Example 522] ({CH2CO}-[Ala(morpholin-4-yl)][Bip][Bip(4'-NHAc)][Sar][2Pal]D[dR]IPVHLCG-NH2; thioether N-13),< 50
8,CC(=O)Nc1ccc(-c2ccc(C[C@@H]3NC(=O)[C@H](Cc4ccc(-c5ccccc5)cc4)NC(=O)[C@H](CN4CCOCC4)NC(=O)CSC[C@@H](C(=O)NCC(N)=O)NC(=O)[C@H](CC(C)C)NC(=O)[C@H](Cc4c[nH]cn4)NC(=O)[C@H](C4CCCCC4)NC(=O)[C@@H]4CCCN4C(=O)[C@H](C(C)C)NC(=O)[C@@H](CCCNC(=N)N)NC(=O)[C@H](CC(=O)O)NC(=O)[C@H](Cc4ccco4)NC(=O)CN(C)C3=O)cc2)cc1 [Example 524] ({CH2CO}-[Ala(morpholin-4-yl)][Bip][Bip(4'-NHAc)][Sar][Ala(2-furyl)]D[dR]VP[Chg]HLCG-NH2; thioether N-13),50 to 200
9,CC(C)C[C@@H]1NC(=O)[C@H](Cc2cnc[nH]2)NC(=O)[C@H](C(C)C)NC(=O)[C@@H]2CCCN2C(=O)[C@H](C(C)C)NC(=O)[C@@H](CCCNC(=N)N)NC(=O)[C@H](CC(=O)O)NC(=O)[C@H](Cc2cnc[nH]2)NC(=O)CN(C)C(=O)[C@H](Cc2ccc(-c3ccc(NC(=O)c4ccc(CC(=O)O)cc4)cc3)cc2)NC(=O)[C@H](Cc2ccc(-c3ccccc3)cc2)NC(=O)[C@H](CC2CCCCC2)NC(=O)CSC[C@@H](C(=O)NCC(N)=O)NC1=O [Example 526] ({CH2CO}-[Cha][Bip][Bip(4'-NHCO-C6H4-4-CH2COOH)][Sar]HD[dR]VPVHLCG-NH2; thioether N-13),< 50
